Results from patent US20240115729A1, “COMPOSITIONS AND METHODS FOR TARGETED ANTIFIBROTIC THERAPY IN CHRONIC PANCREATITIS” (University of Virginia Patent Foundation, priority 2021, published 2024).
“And” between values parts separate entries of the source, which are not always exact repeats. Equal values may be shown once.

Legend:
F4/80 (mouse) = F4/80 (mouse) (UniProt Q61549); test: IF colocalization (JACoP) of VT680 phage with marker, CP mouse pancreas sections
[1] = molecular target: cytokeratin 7 (CK-7) (mouse) (UniProt Q9DCV7); test: as above
collagen IIIa (mouse) = collagen IIIa (mouse) (UniProt P08121); test: as above
[2] = molecular target: carboxypeptidase A1 (CPA1) (mouse) (UniProt Q7TPZ8); test: as above
CD31 (mouse) = CD31 (mouse) (UniProt Q08481); test: as above
[3] = tested on: cellular components in the CP microenvironment; test: Cellular selectivity of phage clones: one-way ANOVA and Tukey-Kramer comparison of MCC of all cell markers; format: in vivo, mouse; details: for Cell type the phage clone shows specificity to / Marker the phage clone shows specificity to: CP microenvironment; for Colocalized Markers (p < 0.05) / Corresponding Cellular Components: statistically significant selectivity for a single cellular component in CP
Text: (§1) Immunofluorescence (IF). Post ex vivo imaging, mouse pancreata were submerged in Neg-50 Frozen Section Medium (Thermo Scientific, Waltham, Massachusetts, United States of America) and snap-frozen over liquid nitrogen vapor. The embedded tissues were cut into 5 μm sections using a cryostat (Leica Microsystems Inc., Buffalo Grove, Illinois, United States of America) for subsequent imaging with ZEISS LSM-880 Confocal Laser Scanning Microscope (Carl Zeiss Meditec, Inc., Jena, Germany) at the Advanced Microscopy Facility at the University of Virginia. Cell types of interest in the pancreatitis microenvironment were identified by immunohistochemistry using the following antibodies: rat anti-mouse CD31 at 1:200 dilution (endothelial markers; BD Biosciences, San Jose, California, United States of America), rat anti-mouse CD206 at 1:1000 dilution (M2 macrophage markers; Bio-Rad, Hercules, California, United States of America), rabbit anti-mouse cytokeratin 7 at 1:3000 dilution (CK-7, epithelial markers; Abcam, Cambridge, Massachusetts, United States of America), rabbit anti-mouse collagen IIIa at 1:200 dilution (ECM markers; Abcam, Cambridge, Massachusetts, United States of America), goat anti-mouse carboxypeptidase A1 at 1:200 dilution (CPA1, acini markers; R&D Systems, Inc., Minneapolis, Minnesota, United States of America), rat anti-mouse F4/80 at 1:500 (macrophage markers; Bio-Rad, Hercules, California, United States of America), and FITC-conjugated, mouse anti-mouse α-SMA at 1:200 dilution (MilliporeSigma, St. Louis, Missouri, United States of America). ALEXA FLUOR® 488 (Abcam, Cambridge, Massachusetts, United States of America) antibodies from appropriate species, including donkey anti-goat, donkey anti-rat, donkey anti-rabbit at 1:500 dilution, were used as secondary antibodies to locate the primary antibodies. IF-stained pancreatic sections were mounted with PROLONG™ Gold Antifade Mountant with DAPI (Thermo Fisher Scientific Inc, Waltham, Massachusetts, United States of America, United States of America) for nucleus visualization. IF images were taken on Ziess LSM 880 Confocal Microscope (ZIESS, Oberkochen, Germany) at the Advanced Microscopy Facility at the University of Virginia.
Statistical analysis. Statistical analysis of the data was performed by student t-test, one-way analysis of variance (ANOVA), and Tukey-Kramer test. All data presented are expressed as mean+standard error of at least three independent measurements. For all comparisons, p-values<0.05 were considered significant.
(§2) To identify the cell types that the CP targeting clones were binding, immunofluorescent analysis was performed on common cellular components in the CP microenvironment in the inflamed pancreas sections following in vivo validation of individual clones (FIG. 7). Mander's correlation coefficient (MCC) analysis was performed to determine colocalization of the targeting phage to the cell markers.

CD31 (endothelium) = test: Immunofluorescence colocalization (MCC) of VT680-labeled phage with cell marker in CP pancreas; format: in vivo, mouse; details: CP pancreas sections
Text: as §1, §2

[4] = tested on: collagen IIIa+ cells (ECM); test: as above; format: in vivo, mouse; details: Col IIIa; CP pancreas sections
Text: as §1, §2

CK7 (epithelium) = test: as above; format: in vivo, mouse; details: CP pancreas sections
Text: as §1, §2

[5] = tested on: F4/80+ cells (macrophages); test: as above; format: in vivo, mouse; details: CP pancreas sections
Text: as §1, §2

[6] = tested on: αSMA+ cells (activated PSC); test: as above; format: in vivo, mouse; details: CP pancreas sections
Text: as §1, §2

[7] = tested on: CPA-1+ cells (acinar cells); test: as above; format: in vivo, mouse; details: CP pancreas sections
Text: as §1, §2

[8] = tested on: caerulein-induced CP mice (inflamed pancreas) versus healthy mice; test: In vivo validation of individual phage clones: ex vivo IVIS fluorescence of organs after co-injection of targeting phage (VT680) and wild type M13Ke phage (VT750); design: species or system mouse (C57BL/6J); details: for CP-to-Healthy Ratio (fold change of specificity ratio): Pancreas; for specificity for CP over healthy pancreas: individual clones from Groups 2 and 3
Experimental: C57BL/6 J mice (6-12 week-old, female) were used for the in vivo phage screening. For chronic pancreatitis, caerulein (Bachem, Torrance, California, United States of America) was dissolved in sterile saline and administrated to mice twice a day, 8 hours apart for 14 consecutive days, at a concentration of 250 μg/kg body weight via intraperitoneal injection (Halbrook et al., 2017), as shown in FIG. 1A. During the 14-day course, intraperitoneal injections of 100 μg/kg buprenorphine were given every 3 days to minimize the induced pain. For healthy controls, c57BL/6 J mice were injected intraperitoneally with an equal volume of sterile saline following the same schedule as in the chronic pancreatitis models. […] Picrosirius red (Polysciences, Inc., Warrington, Pennsylvania, United States of America) was used to visualize collagen in paraffin-embedded pancreas sections (FIG. 1B).
Specificity of phage clones. After PHASTpep analysis and candidate clone selections, 18 candidate clones were grouped (4-5 clones per group, 4 groups total) based on sequence similarity using GibbsCluster Server 2.0 (Andreatta et al., 2017). by the Technical University of Denmark (FIG. 2). […] For each group, the fluorescently labeled candidate and WT phage were mixed and co-injected in CP and healthy mice (n=5) Phage accumulation was determined by measuring the ex vivo fluorescent intensity of the pancreas at 20 hours post-injection using the Fluorescent Molecular Tomography (FMT, PerkinElmer, Waltham, Massachusetts, United States of America) using the excitation and emission wavelength at 675 nm/720 nm for VT680 and 745 nm/800 nm for VT750. To account for variations of fluorescent labeling efficiency, the raw readouts of VT680 and VT750 were normalized to the dye-per-phage ratio (see Table 3 below).
The specificity ratio was calculated as % ID/g of the normalized VT680 divided by the % ID/g of the normalized VT750 (see Equation (1)). Quantifications are included in Table 4.
A similar procedure was applied to determine the specificity of individual phage clones in Groups 2 and 3. Candidate clones were labeled with VivioTag 680 (VT680, PerkinElmer, Waltham, MA) to match the detectable wavelength of the IVIS Spectrum Series (Perkin Elmer, Waltham, Massachusetts, United States of America). Fluorescent intensity was measured at 20 hours post-injection of candidate phage (VT680) and WT phage (VT750). Fold change of specificity ratio was calculated as the specificity ratio of CP mice divided by the specificity ratio of the healthy mouse (see Table 5).

Sequence of UniProt Q08481 (Q08481 18-727): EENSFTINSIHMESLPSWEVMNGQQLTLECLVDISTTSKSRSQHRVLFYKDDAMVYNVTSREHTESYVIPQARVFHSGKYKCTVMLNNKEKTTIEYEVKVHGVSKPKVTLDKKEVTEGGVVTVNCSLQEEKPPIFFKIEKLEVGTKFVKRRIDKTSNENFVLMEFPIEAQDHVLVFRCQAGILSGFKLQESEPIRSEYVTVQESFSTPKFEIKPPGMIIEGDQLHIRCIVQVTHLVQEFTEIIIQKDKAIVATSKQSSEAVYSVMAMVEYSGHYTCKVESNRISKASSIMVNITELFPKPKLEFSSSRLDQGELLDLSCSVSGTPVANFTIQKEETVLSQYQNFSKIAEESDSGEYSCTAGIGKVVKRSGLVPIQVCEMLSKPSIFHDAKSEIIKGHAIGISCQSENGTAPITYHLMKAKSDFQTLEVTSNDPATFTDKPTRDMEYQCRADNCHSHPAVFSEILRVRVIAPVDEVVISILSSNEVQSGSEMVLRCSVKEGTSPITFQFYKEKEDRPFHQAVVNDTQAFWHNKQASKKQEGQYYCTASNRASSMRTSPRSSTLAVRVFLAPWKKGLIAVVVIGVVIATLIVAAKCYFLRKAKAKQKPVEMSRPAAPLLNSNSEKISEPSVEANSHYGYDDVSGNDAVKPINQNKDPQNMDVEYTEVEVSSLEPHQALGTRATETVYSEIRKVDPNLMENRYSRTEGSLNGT
Sequence of UniProt Q61549 (Q61549 28-931): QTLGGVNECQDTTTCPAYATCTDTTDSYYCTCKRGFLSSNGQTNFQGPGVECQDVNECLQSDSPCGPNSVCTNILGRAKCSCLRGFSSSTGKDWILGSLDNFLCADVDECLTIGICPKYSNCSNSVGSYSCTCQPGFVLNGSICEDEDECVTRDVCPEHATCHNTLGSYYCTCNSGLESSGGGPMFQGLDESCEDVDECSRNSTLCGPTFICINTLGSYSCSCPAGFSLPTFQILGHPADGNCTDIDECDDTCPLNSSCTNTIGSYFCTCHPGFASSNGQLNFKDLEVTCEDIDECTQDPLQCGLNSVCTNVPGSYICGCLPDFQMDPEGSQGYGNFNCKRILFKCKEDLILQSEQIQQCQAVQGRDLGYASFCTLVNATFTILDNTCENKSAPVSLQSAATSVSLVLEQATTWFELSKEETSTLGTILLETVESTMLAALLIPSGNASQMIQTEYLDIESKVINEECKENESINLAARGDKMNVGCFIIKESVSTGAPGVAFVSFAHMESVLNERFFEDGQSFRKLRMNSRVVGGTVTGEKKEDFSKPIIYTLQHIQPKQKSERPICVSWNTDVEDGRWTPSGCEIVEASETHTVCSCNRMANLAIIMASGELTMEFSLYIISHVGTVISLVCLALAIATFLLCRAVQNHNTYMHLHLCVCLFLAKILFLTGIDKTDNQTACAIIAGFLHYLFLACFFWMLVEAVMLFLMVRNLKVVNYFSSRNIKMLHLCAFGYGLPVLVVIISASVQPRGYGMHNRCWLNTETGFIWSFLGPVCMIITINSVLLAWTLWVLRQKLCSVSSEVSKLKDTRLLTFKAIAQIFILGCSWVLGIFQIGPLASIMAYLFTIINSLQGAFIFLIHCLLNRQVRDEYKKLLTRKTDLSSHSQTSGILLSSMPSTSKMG
Sequence of UniProt P08121 (P08121 155-1219): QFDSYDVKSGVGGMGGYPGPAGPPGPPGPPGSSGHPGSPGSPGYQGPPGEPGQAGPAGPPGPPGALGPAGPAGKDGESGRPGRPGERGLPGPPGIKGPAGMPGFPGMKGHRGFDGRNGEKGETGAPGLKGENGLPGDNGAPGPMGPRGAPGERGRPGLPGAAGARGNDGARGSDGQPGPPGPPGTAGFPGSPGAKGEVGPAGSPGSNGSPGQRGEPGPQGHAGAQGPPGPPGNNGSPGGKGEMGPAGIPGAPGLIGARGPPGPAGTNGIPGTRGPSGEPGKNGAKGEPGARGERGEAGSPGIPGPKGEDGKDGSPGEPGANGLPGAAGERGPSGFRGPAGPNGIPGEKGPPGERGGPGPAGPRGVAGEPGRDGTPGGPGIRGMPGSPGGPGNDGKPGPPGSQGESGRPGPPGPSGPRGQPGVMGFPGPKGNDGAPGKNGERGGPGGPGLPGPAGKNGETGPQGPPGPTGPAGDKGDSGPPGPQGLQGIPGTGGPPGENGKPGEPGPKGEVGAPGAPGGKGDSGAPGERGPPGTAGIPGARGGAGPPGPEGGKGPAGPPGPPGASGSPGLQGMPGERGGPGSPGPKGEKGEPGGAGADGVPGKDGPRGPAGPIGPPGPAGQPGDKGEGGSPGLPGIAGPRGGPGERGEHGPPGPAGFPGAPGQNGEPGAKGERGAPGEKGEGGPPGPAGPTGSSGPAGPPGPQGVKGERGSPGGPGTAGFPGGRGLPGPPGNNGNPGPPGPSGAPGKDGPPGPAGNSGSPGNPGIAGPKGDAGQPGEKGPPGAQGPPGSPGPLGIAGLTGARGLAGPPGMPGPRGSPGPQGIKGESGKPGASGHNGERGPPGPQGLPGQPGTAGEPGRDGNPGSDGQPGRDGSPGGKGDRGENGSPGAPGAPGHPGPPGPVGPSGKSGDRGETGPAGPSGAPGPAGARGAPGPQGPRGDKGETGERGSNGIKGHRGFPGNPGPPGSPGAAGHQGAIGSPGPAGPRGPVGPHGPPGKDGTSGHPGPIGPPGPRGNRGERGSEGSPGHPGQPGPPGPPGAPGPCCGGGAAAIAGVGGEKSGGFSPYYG
Sequence of UniProt Q9DCV7 (Q9DCV7 2-457): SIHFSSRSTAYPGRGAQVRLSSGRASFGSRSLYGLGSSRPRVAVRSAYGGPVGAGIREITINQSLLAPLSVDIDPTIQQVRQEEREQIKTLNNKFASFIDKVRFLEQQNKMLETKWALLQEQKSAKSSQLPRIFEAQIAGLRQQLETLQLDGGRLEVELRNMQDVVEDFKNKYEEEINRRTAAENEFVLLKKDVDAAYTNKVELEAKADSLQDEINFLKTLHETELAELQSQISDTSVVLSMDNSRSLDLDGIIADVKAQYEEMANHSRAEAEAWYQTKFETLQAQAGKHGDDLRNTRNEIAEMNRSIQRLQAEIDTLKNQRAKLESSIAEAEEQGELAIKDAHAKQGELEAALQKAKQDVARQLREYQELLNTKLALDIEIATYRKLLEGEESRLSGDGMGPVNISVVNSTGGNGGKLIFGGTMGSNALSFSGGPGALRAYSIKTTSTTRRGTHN
Sequence of UniProt Q7TPZ8 (Q7TPZ8 111-419): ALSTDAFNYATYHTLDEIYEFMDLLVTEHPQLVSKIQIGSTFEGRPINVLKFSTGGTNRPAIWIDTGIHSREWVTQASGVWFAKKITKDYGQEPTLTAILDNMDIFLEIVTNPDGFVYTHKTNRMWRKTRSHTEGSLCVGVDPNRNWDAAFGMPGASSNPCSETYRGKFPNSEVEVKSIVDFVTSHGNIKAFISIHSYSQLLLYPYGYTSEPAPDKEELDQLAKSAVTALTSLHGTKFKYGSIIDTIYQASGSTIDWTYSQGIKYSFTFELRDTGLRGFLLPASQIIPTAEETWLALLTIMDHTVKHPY

KTYVPTT (SEQ ID NO: 14) phage clone (peptide)
mean Manders' correlation coefficient (MCC), fraction of phage overlapping cell marker (F4/80 (mouse)): 0.31 | mean Manders' correlation coefficient (MCC), fraction of phage overlapping cell marker [1]: 0.06 | mean Manders' correlation coefficient (MCC), fraction of phage overlapping cell marker (collagen IIIa (mouse)): 0.23 | mean Manders' correlation coefficient (MCC), fraction of phage overlapping cell marker [2]: 0.26 | mean Manders' correlation coefficient (MCC), fraction of phage overlapping cell marker (CD31 (mouse)): 0.2

SNSQDLH (SEQ ID NO: 28) phage clone (peptide)
mean Manders' correlation coefficient (MCC), fraction of phage overlapping cell marker (F4/80 (mouse)): 0.8 | mean Manders' correlation coefficient (MCC), fraction of phage overlapping cell marker [1]: 0.14 | mean Manders' correlation coefficient (MCC), fraction of phage overlapping cell marker (collagen IIIa (mouse)): 0.33 | mean Manders' correlation coefficient (MCC), fraction of phage overlapping cell marker [2]: 0.23 | mean Manders' correlation coefficient (MCC), fraction of phage overlapping cell marker (CD31 (mouse)): 0.12

MNSIAIP (SEQ ID NO: 20) phage clone (peptide)
mean Manders' correlation coefficient (MCC), fraction of phage overlapping cell marker (F4/80 (mouse)): 0.37 | mean Manders' correlation coefficient (MCC), fraction of phage overlapping cell marker [1]: 0.05 | mean Manders' correlation coefficient (MCC), fraction of phage overlapping cell marker (collagen IIIa (mouse)): 0.34 | mean Manders' correlation coefficient (MCC), fraction of phage overlapping cell marker [2]: 0.63 | mean Manders' correlation coefficient (MCC), fraction of phage overlapping cell marker (CD31 (mouse)): 0.24

HPYSPLR (SEQ ID NO: 11) phage clone (peptide)
mean Manders' correlation coefficient (MCC), fraction of phage overlapping cell marker (F4/80 (mouse)): 0.41 | mean Manders' correlation coefficient (MCC), fraction of phage overlapping cell marker [1]: 0.08 | mean Manders' correlation coefficient (MCC), fraction of phage overlapping cell marker (collagen IIIa (mouse)): 0.27 | mean Manders' correlation coefficient (MCC), fraction of phage overlapping cell marker [2]: 0.25 | mean Manders' correlation coefficient (MCC), fraction of phage overlapping cell marker (CD31 (mouse)): 0.35

SLPLGPM (SEQ ID NO: 26) phage clone (peptide)
mean Manders' correlation coefficient (MCC), fraction of phage overlapping cell marker (F4/80 (mouse)): 0.49 | mean Manders' correlation coefficient (MCC), fraction of phage overlapping cell marker [1]: 0.06 | mean Manders' correlation coefficient (MCC), fraction of phage overlapping cell marker (collagen IIIa (mouse)): 0.23 | mean Manders' correlation coefficient (MCC), fraction of phage overlapping cell marker [2]: 0.35 | mean Manders' correlation coefficient (MCC), fraction of phage overlapping cell marker (CD31 (mouse)): 0.25

MDLSLKP (displayed on phage)
Cell type the phage clone shows specificity to [3]: ECM | Marker the phage clone shows specificity to [3]: Collagen | Colocalized Markers (p < 0.05) [3]: Collagen | Corresponding Cellular Components [3]: ECM | Mean Manders' Correlation Coefficient (MCC), fraction of phage overlapping cell marker (CD31 (endothelium)): 0.20 | Mean Manders' Correlation Coefficient (MCC), fraction of phage overlapping cell marker [4]: 0.828±0.089 and 0.83 | Mean Manders' Correlation Coefficient (MCC), fraction of phage overlapping cell marker (CK7 (epithelium)): 0.06 | Mean Manders' Correlation Coefficient (MCC), fraction of phage overlapping cell marker [5]: 0.46 | Mean Manders' Correlation Coefficient (MCC), fraction of phage overlapping cell marker [6]: 0.16 | Mean Manders' Correlation Coefficient (MCC), fraction of phage overlapping cell marker [7]: 0.31 | Radiant efficiency Targeting:M13Ke ([8]; CP mouse, liver): 0.72 | Radiant efficiency Targeting:M13Ke ([8]; CP mouse, pancreas): 10.85 | Radiant efficiency Targeting:M13Ke ([8]; CP mouse, spleen): 2.70 | CP-to-Healthy Ratio ([8]; Liver): 1.370 | CP-to-Healthy Ratio (fold change of specificity ratio) [8]: 1.875 | CP-to-Healthy Ratio ([8]; Spleen): 1.156 | Radiant efficiency Targeting:M13Ke ([8]; healthy mouse, liver): 0.52 | Radiant efficiency Targeting:M13Ke ([8]; healthy mouse, pancreas): 5.79 | Radiant efficiency Targeting:M13Ke ([8]; healthy mouse, spleen): 2.34 | specificity for CP over healthy pancreas [8]: increased specificity for CP over healthy pancreas

KTYVPTT (displayed on phage)
Cell type the phage clone shows specificity to [3]: aPSC | Marker the phage clone shows specificity to [3]: α-SMA^+ | Colocalized Markers (p < 0.05) [3]: α-SMA | Corresponding Cellular Components [3]: aPSC | Mean Manders' Correlation Coefficient (MCC), fraction of phage overlapping cell marker (CD31 (endothelium)): 0.20 | Mean Manders' Correlation Coefficient (MCC), fraction of phage overlapping cell marker [4]: 0.23 | Mean Manders' Correlation Coefficient (MCC), fraction of phage overlapping cell marker (CK7 (epithelium)): 0.06 | Mean Manders' Correlation Coefficient (MCC), fraction of phage overlapping cell marker [5]: 0.31 | Mean Manders' Correlation Coefficient (MCC), fraction of phage overlapping cell marker [6]: 0.521±0.067 and 0.52 | Mean Manders' Correlation Coefficient (MCC), fraction of phage overlapping cell marker [7]: 0.26 | Radiant efficiency Targeting:M13Ke ([8]; CP mouse, liver): 0.61 | Radiant efficiency Targeting:M13Ke ([8]; CP mouse, pancreas): 11.90 | Radiant efficiency Targeting:M13Ke ([8]; CP mouse, spleen): 3.05 | CP-to-Healthy Ratio ([8]; Liver): 1.161 | CP-to-Healthy Ratio (fold change of specificity ratio) [8]: 1.362 | CP-to-Healthy Ratio ([8]; Spleen): 0.890 | Radiant efficiency Targeting:M13Ke ([8]; healthy mouse, liver): 0.53 | Radiant efficiency Targeting:M13Ke ([8]; healthy mouse, pancreas): 8.74 | Radiant efficiency Targeting:M13Ke ([8]; healthy mouse, spleen): 3.43 | specificity for CP over healthy pancreas [8]: increased specificity for CP over healthy pancreas

MDLSLKP (SEQ ID NO: 19) phage clone (peptide)
mean Manders' correlation coefficient (MCC), fraction of phage overlapping cell marker (F4/80 (mouse)): 0.46 | mean Manders' correlation coefficient (MCC), fraction of phage overlapping cell marker [1]: 0.06 | mean Manders' correlation coefficient (MCC), fraction of phage overlapping cell marker [2]: 0.31 | mean Manders' correlation coefficient (MCC), fraction of phage overlapping cell marker (CD31 (mouse)): 0.2
